Active and inactive are the calls of the source. No cut-off for these calls is given here.
Legend:
[1] = biological target: T1, Poly [ADP-ribose] polymerase tankyrase-2 (Homo sapiens, UniProt Q9H2K2); experiment: Inhibition of human recombinant N-terminal GST-tagged PARP5b (667 to 1166 end residues) expressed in baculovirus infected Sf9 cells expression system incubated for 1 hr by ELISA assay
T1 sequence (Q9H2K2 whole entry): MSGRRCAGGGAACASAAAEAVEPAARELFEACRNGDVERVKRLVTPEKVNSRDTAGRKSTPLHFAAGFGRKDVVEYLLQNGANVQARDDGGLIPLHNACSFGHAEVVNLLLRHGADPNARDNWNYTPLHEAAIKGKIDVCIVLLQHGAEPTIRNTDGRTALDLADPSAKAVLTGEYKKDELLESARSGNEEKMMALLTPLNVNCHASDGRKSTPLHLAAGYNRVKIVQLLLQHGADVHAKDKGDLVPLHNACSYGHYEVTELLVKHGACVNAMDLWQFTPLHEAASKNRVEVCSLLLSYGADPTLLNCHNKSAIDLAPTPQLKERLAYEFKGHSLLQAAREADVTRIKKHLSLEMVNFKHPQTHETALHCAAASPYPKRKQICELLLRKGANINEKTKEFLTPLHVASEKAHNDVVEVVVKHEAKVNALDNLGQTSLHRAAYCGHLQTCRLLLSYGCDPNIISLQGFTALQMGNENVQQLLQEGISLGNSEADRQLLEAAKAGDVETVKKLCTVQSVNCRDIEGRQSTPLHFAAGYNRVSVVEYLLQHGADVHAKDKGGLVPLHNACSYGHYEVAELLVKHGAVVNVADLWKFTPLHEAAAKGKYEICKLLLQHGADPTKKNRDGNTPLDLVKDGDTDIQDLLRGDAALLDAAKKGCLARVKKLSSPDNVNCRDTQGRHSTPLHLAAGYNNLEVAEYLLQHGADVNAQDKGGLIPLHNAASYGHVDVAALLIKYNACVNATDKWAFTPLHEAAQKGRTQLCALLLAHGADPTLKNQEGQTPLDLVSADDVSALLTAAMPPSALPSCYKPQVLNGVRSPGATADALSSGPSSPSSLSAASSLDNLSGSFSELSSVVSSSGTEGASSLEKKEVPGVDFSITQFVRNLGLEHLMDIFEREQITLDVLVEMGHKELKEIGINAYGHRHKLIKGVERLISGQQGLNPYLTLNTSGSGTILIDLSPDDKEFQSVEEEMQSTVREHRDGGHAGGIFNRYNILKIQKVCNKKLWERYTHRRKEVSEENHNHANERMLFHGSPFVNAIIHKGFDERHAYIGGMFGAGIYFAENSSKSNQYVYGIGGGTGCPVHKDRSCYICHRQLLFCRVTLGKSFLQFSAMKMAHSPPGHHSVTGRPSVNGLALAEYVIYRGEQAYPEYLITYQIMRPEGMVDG

[2] = biological target: T2, Protein mono-ADP-ribosyltransferase PARP10 (Homo sapiens, UniProt Q53GL7); experiment: Inhibition of human recombinant N-terminal FLAG-tagged / C-terminal Strep-tagged PARP10 (805 to 1025 end residues) expressed in baculovirus infected Sf9 cells expression system incubated for 1 hr by ELISA assay
T2 sequence (Q53GL7 whole entry): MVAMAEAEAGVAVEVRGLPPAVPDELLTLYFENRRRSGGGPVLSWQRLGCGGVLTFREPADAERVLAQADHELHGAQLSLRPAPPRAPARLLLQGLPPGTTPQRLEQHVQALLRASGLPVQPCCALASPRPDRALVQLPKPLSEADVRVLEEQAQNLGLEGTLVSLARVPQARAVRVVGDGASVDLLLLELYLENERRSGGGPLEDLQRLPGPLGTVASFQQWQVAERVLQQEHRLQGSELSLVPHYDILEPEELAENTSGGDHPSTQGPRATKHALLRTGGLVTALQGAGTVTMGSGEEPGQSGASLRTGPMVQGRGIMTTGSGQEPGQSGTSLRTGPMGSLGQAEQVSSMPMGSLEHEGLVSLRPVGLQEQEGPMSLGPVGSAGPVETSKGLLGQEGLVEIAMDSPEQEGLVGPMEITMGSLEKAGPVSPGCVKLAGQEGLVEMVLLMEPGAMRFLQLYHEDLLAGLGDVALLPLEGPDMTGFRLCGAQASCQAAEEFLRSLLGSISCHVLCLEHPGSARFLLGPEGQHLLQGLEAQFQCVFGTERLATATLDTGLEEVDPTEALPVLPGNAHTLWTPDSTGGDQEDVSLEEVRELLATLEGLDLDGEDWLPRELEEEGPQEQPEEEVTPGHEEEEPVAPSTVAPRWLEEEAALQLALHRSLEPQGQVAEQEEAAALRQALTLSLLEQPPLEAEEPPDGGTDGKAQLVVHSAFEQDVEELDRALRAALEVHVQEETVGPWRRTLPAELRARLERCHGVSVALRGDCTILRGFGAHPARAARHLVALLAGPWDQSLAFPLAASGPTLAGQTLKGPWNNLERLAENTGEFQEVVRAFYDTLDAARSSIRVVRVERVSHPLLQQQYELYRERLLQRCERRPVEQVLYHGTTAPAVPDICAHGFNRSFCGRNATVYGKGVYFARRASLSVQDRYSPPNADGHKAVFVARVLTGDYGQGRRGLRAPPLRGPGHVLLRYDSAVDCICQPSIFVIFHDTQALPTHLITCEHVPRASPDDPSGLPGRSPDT

[3] = MRT(0 to infinity) in ICR mouse at 10 mg/kg, po measured upto 24 hrs by LC-MS/MS analysis; assay type: ADME, organism-based; details: in vivo
[4] = Oral bioavailability in ICR mouse at 10 mg/kg measured upto 24 hrs by LC-MS/MS analysis; assay type: ADME, organism-based; details: in vivo
CT26 [5] = experiment: Antitumor activity against mouse CT26 cells xenografted in BALB/c mouse assessed as tumor growth inhibition at 100 mg/kg, po bid measured for 14 days; assay type: functional; details: CT26, 336 h, time 14 day, read-out: TGI
CT26 [6] = experiment: Antitumor activity against mouse CT26 cells implanted in BALB/c mouse assessed as tumor cell contraction at 25 to 100 mg/kg, po bid measured for 14 days by hematoxylin and eosin staining based fluorescence microscopic analysis; assay type: functional, organism-based; details: dose 25-100 mg/kg, time 14.0 day
CT26 [7] = experiment: Antitumor activity against mouse CT26 cells implanted in BALB/c mouse assessed as decrease in Ki-67 expression at 25 to 100 mg/kg, po bid measured for 14 days by immunohistochemistry analysis; assay type: functional, organism-based; details: dose 25-100 mg/kg, time 14.0 day
[8] = Toxicity in BALB/c mouse implanted with mouse CT26 cells assessed as kidney damage at 100 mg/kg, po measured for 14 days by hematoxylin and eosin staining based fluorescence microscopic analysis; assay type: organism-based; details: in vivo, 336 h, time 14 day

IC50 [1]: 227 nM
IC50 [2]: 325 nM
MRT inf [3]: 1.97 h
bioavailability [4]: 95.8%
Compound: C[C@@H](CN1CC(C(=O)N2CCN(c3ncc(C(F)(F)F)cn3)CC2)C1)Nc1cn[nH]c(=O)c1C(F)(F)F
inhibition in vivo at 100 mg/kg (CT26 [5]): 67%
Activity (CT26 [6]): Active
Activity (CT26 [7]): Active
Activity [8]: Non-Toxic

Source: ChEMBL document CHEMBL5316291 (J Med Chem, 2023)
